Read-outs that look alike come from different tables or passages of the source.
How the values were obtained:
[1] = target: TNIK (Homo sapiens (Human), UniProt Q9UKE5); assay: TNIK enzymatic assay (radiometric kinase inhibition); assay type: biochemical
Protocol: The compounds were studied for function as TNIK inhibitors to generate the data of Table 1. […] (specific activity and concentration as required). The reaction is initiated by the addition of the Mg/ATP mix. After incubation for 40 minutes at room temperature, the reaction is stopped by the addition of phosphoric acid to a concentration of 0.5%.

[2] = target: MAP4K4 (h) (Homo sapiens (Human), UniProt O95819); assay: MAP4K4 in vitro kinase assay (radiometric); assay type: biochemical; settings: read-out: MAP4K4_IC50
Protocol: (specific activity and concentration as required). The reaction is initiated by the addition of the Mg/ATP mix. After incubation for 40 minutes at room temperature, the reaction is stopped by the addition of phosphoric acid to a concentration of 0.5%.

[3] = TNIK enzymatic assay, Table 1, read-out: IC50

TNIK, sequence (Q9UKE5 whole entry): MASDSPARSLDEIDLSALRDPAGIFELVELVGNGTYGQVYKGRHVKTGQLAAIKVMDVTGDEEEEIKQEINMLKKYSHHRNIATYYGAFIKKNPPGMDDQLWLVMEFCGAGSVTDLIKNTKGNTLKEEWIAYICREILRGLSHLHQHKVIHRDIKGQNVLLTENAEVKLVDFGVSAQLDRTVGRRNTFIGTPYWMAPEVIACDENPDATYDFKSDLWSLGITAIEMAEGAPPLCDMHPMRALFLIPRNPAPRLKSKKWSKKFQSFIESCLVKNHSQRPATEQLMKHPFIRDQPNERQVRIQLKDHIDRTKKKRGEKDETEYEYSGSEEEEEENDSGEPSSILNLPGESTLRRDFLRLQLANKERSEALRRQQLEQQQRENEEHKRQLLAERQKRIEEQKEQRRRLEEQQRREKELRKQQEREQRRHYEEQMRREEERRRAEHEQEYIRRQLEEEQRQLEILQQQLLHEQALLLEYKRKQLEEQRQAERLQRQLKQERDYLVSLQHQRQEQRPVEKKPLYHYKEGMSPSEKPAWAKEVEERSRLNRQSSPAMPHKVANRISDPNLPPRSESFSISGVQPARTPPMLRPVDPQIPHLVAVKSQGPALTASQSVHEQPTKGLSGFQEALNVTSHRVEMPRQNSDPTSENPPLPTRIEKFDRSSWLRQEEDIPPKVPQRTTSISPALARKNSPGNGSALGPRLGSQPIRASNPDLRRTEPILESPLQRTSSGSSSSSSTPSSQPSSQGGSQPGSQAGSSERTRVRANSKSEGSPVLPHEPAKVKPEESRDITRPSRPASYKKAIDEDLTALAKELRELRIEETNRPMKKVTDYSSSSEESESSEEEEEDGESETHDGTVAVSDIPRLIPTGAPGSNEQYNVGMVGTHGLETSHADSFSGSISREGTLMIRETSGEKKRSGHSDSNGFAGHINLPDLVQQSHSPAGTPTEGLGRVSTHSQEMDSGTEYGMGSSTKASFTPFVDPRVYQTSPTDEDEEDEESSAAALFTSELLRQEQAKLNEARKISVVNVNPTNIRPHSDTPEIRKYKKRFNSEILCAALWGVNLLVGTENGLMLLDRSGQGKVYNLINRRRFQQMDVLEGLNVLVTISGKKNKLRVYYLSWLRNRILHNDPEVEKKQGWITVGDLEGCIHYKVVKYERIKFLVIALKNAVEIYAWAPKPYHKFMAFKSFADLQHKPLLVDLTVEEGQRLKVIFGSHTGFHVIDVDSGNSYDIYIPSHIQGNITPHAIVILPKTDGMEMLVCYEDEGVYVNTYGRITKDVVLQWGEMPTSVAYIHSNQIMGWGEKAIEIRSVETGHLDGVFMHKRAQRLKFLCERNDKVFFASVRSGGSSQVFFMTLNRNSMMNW
MAP4K4 (h), sequence (O95819 whole entry): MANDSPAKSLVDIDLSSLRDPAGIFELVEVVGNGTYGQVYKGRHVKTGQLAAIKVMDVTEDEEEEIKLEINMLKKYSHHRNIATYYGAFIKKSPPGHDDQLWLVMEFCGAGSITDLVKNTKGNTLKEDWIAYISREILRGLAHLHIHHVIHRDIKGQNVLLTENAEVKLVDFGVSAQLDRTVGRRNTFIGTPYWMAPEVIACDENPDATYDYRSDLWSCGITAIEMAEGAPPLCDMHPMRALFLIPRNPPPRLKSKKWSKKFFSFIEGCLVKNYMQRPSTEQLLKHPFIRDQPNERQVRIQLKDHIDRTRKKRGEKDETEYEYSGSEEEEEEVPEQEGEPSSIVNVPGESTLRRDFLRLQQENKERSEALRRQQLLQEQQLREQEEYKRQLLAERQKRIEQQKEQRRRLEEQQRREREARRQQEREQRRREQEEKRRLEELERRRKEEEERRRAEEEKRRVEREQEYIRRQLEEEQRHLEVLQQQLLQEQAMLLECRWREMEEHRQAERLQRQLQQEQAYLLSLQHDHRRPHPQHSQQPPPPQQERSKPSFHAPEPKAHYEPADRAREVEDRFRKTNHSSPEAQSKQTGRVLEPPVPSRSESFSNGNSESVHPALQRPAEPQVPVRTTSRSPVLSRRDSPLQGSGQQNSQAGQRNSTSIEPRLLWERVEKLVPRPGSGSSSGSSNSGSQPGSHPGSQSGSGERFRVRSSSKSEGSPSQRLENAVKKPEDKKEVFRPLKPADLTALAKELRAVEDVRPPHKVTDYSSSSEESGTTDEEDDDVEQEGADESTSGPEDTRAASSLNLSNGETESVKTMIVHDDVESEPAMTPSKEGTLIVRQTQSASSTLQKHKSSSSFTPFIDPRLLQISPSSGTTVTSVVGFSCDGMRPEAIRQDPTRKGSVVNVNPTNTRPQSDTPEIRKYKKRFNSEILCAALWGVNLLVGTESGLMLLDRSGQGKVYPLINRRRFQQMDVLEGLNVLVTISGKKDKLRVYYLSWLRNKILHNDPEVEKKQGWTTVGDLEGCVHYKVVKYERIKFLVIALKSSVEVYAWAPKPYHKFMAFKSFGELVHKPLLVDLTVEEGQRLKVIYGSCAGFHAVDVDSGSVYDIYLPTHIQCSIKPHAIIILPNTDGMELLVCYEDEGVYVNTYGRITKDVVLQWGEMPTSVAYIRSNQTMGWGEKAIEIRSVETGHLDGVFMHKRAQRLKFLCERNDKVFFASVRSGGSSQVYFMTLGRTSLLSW

Structure (SMILES) | IC50 [1, 3] [nM] | IC50 ([1]; read-out: TNIK_IC50) [nM] | IC50 [2] [nM]
COc1cccc(NC(=O)c2ccc(-c3c(-c4ccc(F)cc4)ncn3C3CCCCC3)o2)c1 [Compound 53, 5-(1-cyclohexyl-4-(4-fluorophenyl)-1H-imidazol-5-yl)-N-(3-methoxyphenyl)furan-2-carboxamide] | 138 | 138 | 244
COc1ccc(NC(=O)c2ccc(-c3c(-c4ccc(F)cc4)ncn3C3CCCCC3)o2)cc1 [Compound 54, 5-(1-cyclohexyl-4-(4-fluorophenyl)-1H-imidazol-5-yl)-N-(4-methoxyphenyl)furan-2-carboxamide] | 60 | 60 | 107
O=C(Nc1ccccc1Cl)c1ccc(-c2c(-c3ccc(F)cc3)ncn2C2CCCCC2)o1 [Compound 55, N-(2-chlorophenyl)-5-(1-cyclohexyl-4-(4-fluorophenyl)-1H-imidazol-5-yl)furan-2-carboxamide] | 24 | 24 | 43.4
O=C(Nc1ccc(Cl)cc1)c1ccc(-c2c(-c3ccc(F)cc3)ncn2C2CCCCC2)o1 [Compound 56, N-(4-chlorophenyl)-5-(1-cyclohexyl-4-(4-fluorophenyl)-1H-imidazol-5-yl)furan-2-carboxamide] | 99 | 99 | 195
O=C(Nc1ccc(F)cc1F)c1ccc(-c2c(-c3ccc(F)cc3)ncn2C2CCCCC2)o1 [Compound 57, 5-(1-cyclohexyl-4-(4-fluorophenyl)-1H-imidazol-5-yl)-N-(2,4-difluorophenyl)furan-2-carboxamide] | 38 | 38 | 111
COc1cc(NC(=O)c2ccc(-c3c(-c4ccc(F)cc4)ncn3C3CCCCC3)o2)cc(OC)c1 [Compound 58, 5-(1-cyclohexyl-4-(4-fluorophenyl)-1H-imidazol-5-yl)-N-(3,5-dimethoxyphenyl)furan-2-carboxamide] | 275 | 275 | 581
Cc1cccc(NC(=O)c2ccc(-c3c(-c4ccc(F)cc4)ncn3C3CCCCC3)o2)c1C [Compound 59, 5-(1-cyclohexyl-4-(4-fluorophenyl)-1H-imidazol-5-yl)-N-(2,3-dimethylphenyl)furan-2-carboxamide] | 562 | 562 | > 1000
Cc1cccc(C)c1NC(=O)c1ccc(-c2c(-c3ccc(F)cc3)ncn2C2CCCCC2)o1 [Compound 60, 5-(1-cyclohexyl-4-(4-fluorophenyl)-1H-imidazol-5-yl)-N-(2,6-dimethylphenyl)furan-2-carboxamide] | 874 | 874 | > 1000
CCc1ccccc1NC(=O)c1ccc(-c2c(-c3ccc(F)cc3)ncn2C2CCCCC2)o1 [Compound 61, 5-(1-cyclohexyl-4-(4-fluorophenyl)-1H-imidazol-5-yl)-N-(2-ethylphenyl)furan-2-carboxamide] | 164 | 164 | 247
O=C(Nc1ccccc1F)c1ccc(-c2c(-c3ccc(F)cc3)ncn2C2CCCCC2)o1 [Compound 62, 5-(1-cyclohexyl-4-(4-fluorophenyl)-1H-imidazol-5-yl)-N-(2-fluorophenyl)furan-2-carboxamide] | 25 | 25 | 46.9
O=C(Nc1cccc(F)c1)c1ccc(-c2c(-c3ccc(F)cc3)ncn2C2CCCCC2)o1 [Compound 63, 5-(1-cyclohexyl-4-(4-fluorophenyl)-1H-imidazol-5-yl)-N-(3-fluorophenyl)furan-2-carboxamide] | 108 | 108 | 127
CCOc1ccc(NC(=O)c2ccc(-c3c(-c4ccc(F)cc4)ncn3C3CCCCC3)o2)cc1 [Compound 64, 5-(1-cyclohexyl-4-(4-fluorophenyl)-1H-imidazol-5-yl)-N-(4-ethoxyphenyl)furan-2-carboxamide] | 62 | 62 | 175
Cc1ccccc1NC(=O)c1ccc(-c2c(-c3ccc(F)cc3)ncn2C2CCCCC2)o1 [Compound 65, 5-(1-cyclohexyl-4-(4-fluorophenyl)-1H-imidazol-5-yl)-N-(o-tolyl)furan-2-carboxamide] | 152 | 152 | 320
Cc1ccc(NC(=O)c2ccc(-c3c(-c4ccc(F)cc4)ncn3C3CCCCC3)o2)cc1Cl [Compound 66, N-(3-chloro-4-methylphenyl)-5-(1-cyclohexyl-4-(4-fluorophenyl)-1H-imidazol-5-yl)furan-2-carboxamide] | 531 | 531 | > 1000
Cc1ccc(NC(=O)c2ccc(-c3c(-c4ccc(F)cc4)ncn3C3CCCCC3)o2)c(C)c1 [Compound 67, 5-(1-cyclohexyl-4-(4-fluorophenyl)-1H-imidazol-5-yl)-N-(2,4-dimethylphenyl)furan-2-carboxamide] | 77 | 77 | 247
Cc1ccc(NC(=O)c2ccc(-c3c(-c4ccc(F)cc4)ncn3C3CCCCC3)o2)c(Cl)c1 [Compound 68, N-(2-chloro-4-methylphenyl)-5-(1-cyclohexyl-4-(4-fluorophenyl)-1H-imidazol-5-yl)furan-2-carboxamide] | 19 | 19 | 71.7
Cc1ccc(NC(=O)c2ccc(-c3c(-c4ccc(F)cc4)ncn3C3CCCCC3)o2)cc1C [Compound 69, 5-(1-cyclohexyl-4-(4-fluorophenyl)-1H-imidazol-5-yl)-N-(3,4-dimethylphenyl)furan-2-carboxamide] | 90 | 90 | 288
Cc1cc(C)c(NC(=O)c2ccc(-c3c(-c4ccc(F)cc4)ncn3C3CCCCC3)o2)c(C)c1 [Compound 70, 5-(1-cyclohexyl-4-(4-fluorophenyl)-1H-imidazol-5-yl)-N-mesitylfuran-2-carboxamide] | 936 | 936 | > 1000
CC(=O)c1cccc(NC(=O)c2ccc(-c3c(-c4ccc(F)cc4)ncn3C3CCCCC3)o2)c1 [Compound 71, N-(3-acetylphenyl)-5-(1-cyclohexyl-4-(4-fluorophenyl)-1H-imidazol-5-yl)furan-2-carboxamide] | 151 | 151 | 625
CSc1cccc(NC(=O)c2ccc(-c3c(-c4ccc(F)cc4)ncn3C3CCCCC3)o2)c1 [Compound 72, 5-(1-cyclohexyl-4-(4-fluorophenyl)-1H-imidazol-5-yl)-N-(3-(methylthio)phenyl)furan-2-carboxamide] | 238 | 238 | 638
CC(C)c1ccc(NC(=O)c2ccc(-c3c(-c4ccc(F)cc4)ncn3C3CCCCC3)o2)cc1 [Compound 73, 5-(1-cyclohexyl-4-(4-fluorophenyl)-1H-imidazol-5-yl)-N-(4-isopropylphenyl)furan-2-carboxamide] | 48 | 48 | 270
CCc1cccc(NC(=O)c2ccc(-c3c(-c4ccc(F)cc4)ncn3C3CCCCC3)o2)c1 [Compound 74, 5-(1-cyclohexyl-4-(4-fluorophenyl)-1H-imidazol-5-yl)-N-(3-ethylphenyl)furan-2-carboxamide] | 326 | 326 | 300
O=C(Nc1ccc(F)c(F)c1)c1ccc(-c2c(-c3ccc(F)cc3)ncn2C2CCCCC2)o1 [Compound 75, 5-(1-cyclohexyl-4-(4-fluorophenyl)-1H-imidazol-5-yl)-N-(3,4-difluorophenyl)furan-2-carboxamide] | 191 | 191 | 431
O=C(Nc1ccc(Cl)cc1F)c1ccc(-c2c(-c3ccc(F)cc3)ncn2C2CCCCC2)o1 [Compound 76, N-(4-chloro-2-fluorophenyl)-5-(1-cyclohexyl-4-(4-fluorophenyl)-1H-imidazol-5-yl)furan-2-carboxamide] | 42 | 42 | 70.3
COc1ccc(C)cc1NC(=O)c1ccc(-c2c(-c3ccc(F)cc3)ncn2C2CCCCC2)o1 [Compound 77, 5-(1-cyclohexyl-4-(4-fluorophenyl)-1H-imidazol-5-yl)-N-(2-methoxy-5-methylphenyl)furan-2-carboxamide] | 27 | 27 | 62.2
CC(=O)Nc1ccc(NC(=O)c2ccc(-c3c(-c4ccc(F)cc4)ncn3C3CCCCC3)o2)cc1 [Compound 78, N-(4-acetamidophenyl)-5-(1-cyclohexyl-4-(4-fluorophenyl)-1H-imidazol-5-yl)furan-2-carboxamide] | 15 | 15 | 34.6
COc1ccccc1NC(=O)c1ccc(-c2c(-c3ccc(F)cc3)ncn2C2CCCCC2)o1 [Compound 79, 5-(1-cyclohexyl-4-(4-fluorophenyl)-1H-imidazol-5-yl)-N-(2-methoxyphenyl)furan-2-carboxamide] | 16 | 16 | 22.2
O=C(Nc1ccccc1F)c1ccc(-c2c(-c3ccc(F)cc3)ncn2CC2CCCN2)o1 (stereo not shown) [Compound 88, N-(2-fluorophenyl)-5-(4-(4-fluorophenyl)-1-(pyrrolidin-2-ylmethyl)-1H-imidazol-5-yl)furan-2-carboxamide] | 8450 | 8450 | 12400
O=C(Nc1ccccc1F)c1ccc(-c2c(-c3cncnc3)ncn2C2CCCC2)o1 [Compound 94, 5-(1-cyclopentyl-4-(pyrimidin-5-yl)-1H-imidazol-5-yl)-N-(2-fluorophenyl)furan-2-carboxamide] |  | > 10000 | > 10000
O=C(Nc1ccc(-c2c(-c3ccc(F)cc3)ncn2C2CCCC2)o1)c1ccccc1F [Compound 95, N-(5-(1-cyclopentyl-4-(4-fluorophenyl)-1H-imidazol-5-yl)furan-2-yl)-2-fluorobenzamide] |  | 480 | 547

— patent US11739078B2, “Methods of inhibiting kinases” (INSILICO MEDICINE IP LIMITED, priority 2019, dated 2023)
